Results as given in patent US10448639B2, “Fungicidal pyrazoles” (FMC CORPORATION, priority 2009, dated 2019).

Key:
[1] = system: Puccinia recondita f. sp. tritici; assay: Test I: wheat leaf rust, preventive spray on wheat seedlings, visual disease rating; details: for Test I rating (% disease control) / Test I disease control rating: wheat leaf rust, 100 = 100% disease control; for Test I disease control rating: sprayed the day before inoculation, 0 = no disease control relative to controls
[2] = system: Botrytis cinerea; assay: Test B: tomato Botrytis, preventive spray on tomato seedlings, visual disease rating; details: for Test B rating (% disease control) / Test B disease control rating: tomato Botrytis, 100 = 100% disease control; for Test B disease control rating: 0 = no disease control relative to controls
[3] = system: Septoria tritici; assay: Test G: wheat leaf blotch, preventive spray on wheat seedlings, visual disease rating; details: for Test G rating (% disease control) / Test G disease control rating: wheat leaf blotch, 100 = 100% disease control; for Test G disease control rating: sprayed the day before inoculation, 0 = no disease control relative to controls
Source text: General protocol for preparing test suspensions for Tests A-J: the test compounds were first dissolved in acetone in an amount equal to 3% of the final volume and then suspended at the desired concentration (in ppm) in acetone and purified water (50/50 mix by volume) containing 250 ppm of the surfactant Trem® 014 (polyhydric alcohol esters). The resulting test suspensions were then used in Tests A-J. Spraying a 200 ppm test suspension to the point of run-off on the test plants was the equivalent of a rate of 500 g/ha. Unless otherwise indicated, the rating values indicate a 200 ppm test suspension was used. (An asterisk “*” next to the rating value indicates a 40 ppm test suspension was used.)
The test suspension was sprayed to the point of run-off on wheat seedlings. The following day the seedlings were inoculated with a spore suspension of Septoria tritici (the causal agent of wheat leaf blotch) and incubated in saturated atmosphere at 24° C. for 48 h. and then the seedlings were moved to a growth chamber at 20° C. for 19 additional days, after which time visual disease ratings were made.

[4] = system: Alternaria solani; assay: Test C: tomato early blight, preventive spray on tomato seedlings, visual disease rating; details: for Test C rating (% disease control) / Test C disease control rating: tomato early blight, 100 = 100% disease control; for Test C disease control rating: 0 = no disease control relative to controls
[5] = system: Erysiphe graminis f sp. tritici; assay: Test J: wheat powdery mildew, preventive spray on wheat seedlings, visual disease rating; details: for Test J rating (% disease control) / Test J disease control rating: wheat powdery mildew, 100 = 100% disease control; for Test J disease control rating: sprayed the day before inoculation, 0 = no disease control relative to controls
[6] = system: Septoria nodorum; assay: Test F: Septoria glume blotch, preventive spray on wheat seedlings, visual disease rating; details: for Test F rating (% disease control) / Test F disease control rating: 100 = 100% disease control; for Test F disease control rating: 0 = no disease control relative to controls
[7] = system: Puccinia recondita f. sp. tritici; assay: Test H: wheat leaf rust, curative spray on inoculated wheat seedlings, visual disease rating; details: for Test H rating (% disease control) / Test H disease control rating: wheat leaf rust, 100 = 100% disease control; for Test H disease control rating: sprayed after inoculation, 0 = no disease control relative to controls
[8] = preventive, 0 = no control relative to controls
[9] = 0 = no control relative to controls
[10] = Septoria glume blotch, 0 = no control relative to controls
[11] = curative, 0 = no control relative to controls
[12] = preventive spray, 0 = no control
[13] = Septoria glume blotch on wheat, preventive spray, 0 = no control

Compound | Test I rating (% disease control) [1, 8] | Test B rating (% disease control) [2, 9] | Test G rating (% disease control) [3, 9] | Test C rating (% disease control) [4, 9] | Test J rating (% disease control) [5, 9] | Test F rating (% disease control) [6, 10] | Test H rating (% disease control) [7, 11] | Test I rating (% disease control) [1, 12] | Test B rating (% disease control) [2, 12] | Test G rating (% disease control) [3, 12] | Test C rating (% disease control) [4, 12] | Test J rating (% disease control) [5, 12] | Test F rating (% disease control) [6, 13] | Test H rating (% disease control) ([7]; curative spray, 0 = no control) | further results
Cc1nn(C)c(Nc2ncc(F)cc2F)c1-c1c(F)cccc1C(F)(F)F [compound 264] | 99% | 100% | 92% | 98% | 98% | 0% | 0% |  |  |  |  |  |  |  | 
Cc1nn(C)c(Nc2cc(F)c(F)cc2F)c1-c1c(F)cc(C#N)cc1F [compound 138] |  |  |  |  |  |  |  | 100% | 99% | 99% | 96% | 98% | 84% | 38% | 
Cc1nn(C)c(Nc2c(F)cc(F)cc2Cl)c1-c1ccc(F)cc1F [Compound 343, N-(2-chloro-4,6-difluorophenyl)-4-(2,4-difluorophenyl)-1,3-dimethyl-1H-pyrazol-5-amine] |  |  |  |  |  |  |  |  |  |  |  |  |  |  | pest or weed control at 200 µg/mL ([1]; 192 h, read-out: Test I disease control rating): 100%; pest or weed control at 200 µg/mL ([2]; Botrytis cinerea, in Solanum lycopersicum, 120 h, read-out: Test B disease control rating): 100%; pest or weed control at 200 µg/mL ([3]; Zymoseptoria tritici, in Triticum aestivum, 504 h, read-out: Test G disease control rating): 100%; pest or weed control at 200 µg/mL ([4]; Alternaria solani, in Solanum lycopersicum, 168 h, read-out: Test C disease control rating): 100%; pest or weed control at 200 µg/mL ([5]; Blumeria graminis, in Triticum aestivum, 192 h, read-out: Test J disease control rating): 100%; pest or weed control at 200 µg/mL ([6]; Parastagonospora nodorum, in Triticum aestivum, 192 h, read-out: Test F disease control rating): 97%; pest or weed control at 200 µg/mL ([7]; 144 h, read-out: Test H disease control rating): 91%
COc1cc(F)ccc1Nc1c(-c2c(F)cccc2F)c(C)nn1C [compound 199] | 68% | 99% | 99% | 86% | 98% | 0% | 0% |  |  |  |  |  |  |  | 
COc1ccc(Nc2c(-c3ccc(F)cc3Cl)c(C)nn2C)c(Cl)c1 [compound 322] |  |  |  |  |  |  |  |  |  |  |  |  |  |  | Test I disease control rating [1]: 100%; Test B disease control rating [2]: 100%; Test G disease control rating [3]: 100%; Test C disease control rating [4]: 93%; Test J disease control rating [5]: 100%; Test F disease control rating ([6]; Septoria glume blotch on wheat): 0%; Test H disease control rating [7]: 99%
Cc1nn(C)c(Oc2ccc([N+](=O)[O-])c(C#N)c2)c1-c1c(F)cc(F)cc1F [compound 156] | 41% | 94% | 73% | 0% | 47% | 0% | 0% |  |  |  |  |  |  |  | 
Cc1nn(C)c(Nc2cccc(Cl)c2Cl)c1-c1c(F)cc(C#N)cc1F [compound 147] |  |  |  |  |  |  |  | 98% | 99% | 100% | 88% | 92% | 100% | 0% | 
Cc1nn(C)c(Nc2ccc(F)c(Cl)c2)c1-c1c(F)cc(C#N)cc1F [compound 144] |  |  |  |  |  |  |  | 98% | 99% | 99% | 9% | 91% | 40% | 0% | 
Cc1nn(C)c(Nc2ncc(Cl)cc2Cl)c1-c1c(F)cc(F)cc1F [compound 101] |  |  |  |  |  |  |  | 99% | 100% | 100% | 99% | 100% | 100% | 99% | 
Cc1nn(C)c(Nc2ncc(Cl)cc2Cl)c1-c1ccc(F)cc1Cl [compound 73] |  |  |  |  |  |  |  | 100% | 100% | 100% | 99% | 99% | 64% | 88% | 
COc1cc(Oc2c(-c3c(F)cc(F)cc3F)c(C)nn2C)ccc1Cl [compound 164] | 9% | 49% | 99% | 57% | 97% | 0% | 15% |  |  |  |  |  |  |  | 
COc1cc(F)c(-c2c(C)nn(C)c2Oc2ccc(Br)c(F)c2)c(F)c1 [compound 153] | 96% | 100% | 100% | 0% | 98% | 73% | 0% |  |  |  |  |  |  |  | 
Cc1nn(C)c(Nc2c(F)cc(F)cc2F)c1-c1ccccc1Br [compound 248] | 99% | 99% | 100% | 26% | 100% | 73% | 0% |  |  |  |  |  |  |  | 
Cc1nn(C)c(Nc2ccc(Br)cc2F)c1-c1ccc(F)cc1Cl [compound 366] |  |  |  |  |  |  |  |  |  |  |  |  |  |  | Test I disease control rating [1]: 99%; Test B disease control rating [2]: 100%; Test G disease control rating [3]: 100%; Test C disease control rating [4]: 58%; Test J disease control rating [5]: 100%; Test F disease control rating ([6]; Septoria glume blotch on wheat): 0%; Test H disease control rating [7]: 9%
Cc1nn(C)c(Oc2c(F)cc(C#N)cc2F)c1-c1cccc(F)c1 [compound 43] |  |  |  |  |  |  |  | 82% | 76% | 97% | 0% | 99% | 0% | 66% | 
COc1cc(F)c(-c2c(C)nn(C)c2C(O)c2ccc(F)cc2F)c(F)c1 (centres unmarked) [compound 208] | 99% | 100% | 100% | 100% | 99% | 99% | 0% |  |  |  |  |  |  |  | 
Cc1ncc(Nc2c(-c3ccc(F)cc3Cl)c(C)nn2C)cn1 [compound 269] | 0% | 80% | 67% | 0% | 0% | 0% | 8% |  |  |  |  |  |  |  | 
COc1cc(F)c(-c2c(C)nn(C)c2Nc2ncc(Cl)cc2Cl)c(F)c1 [compound 102] |  |  |  |  |  |  |  | 100% | 100% | 99% | 100% | 98% | 98% | 0% | 
Cc1nn(C)c(Nc2ncc(Cl)cc2Cl)c1-c1ccccc1C(F)(F)F [compound 251] | 86% | 99% | 98% | 0% | 100% | 0% | 0% |  |  |  |  |  |  |  | 
Cc1nn(C)c(Nc2ccc(F)cc2)c1-c1cccc(F)c1F [compound 205] | 91% | 100% | 99% | 17% | 100% | 0% | 0% |  |  |  |  |  |  |  | 
